Nine compounds from US20220323596A1, “ANTIBODY CONJUGATES OF TOLL-LIKE RECEPTOR AGONISTS” (SILVERBACK THERAPEUTICS, INC., priority 2018, published 2022) can be followed below.

The test system of one assay is BMDM with SK-BR-3 (HER2pos). In words: mTNFα from mouse bone marrow derived macrophages co-cultured with SK-BR-3 (HER2pos) cells. Conditions: 24 hours co-culture with HER2pos SK-BR-3. The format is cell-based. On the procedure: (§1) The ability of an anti-HER2-TLR7 conjugate to specifically activate mouse macrophages when bound to tumor cells by HER2 was assessed in vitro as follows. Bone marrow cells were harvested from BALB/cJ mouse femurs and tibias using a 27-gauge needle attached to a 3 mL syringe filled with growth media (DMEM supplemented with 10% Fetal Bovine Serum, 1 mM Sodium Pyruvate, 1× GlutaMAX-1, 1× Non-Essential Amino Acids, 10 mM HEPES and 0.5% Penicillin/Streptomycin). Bone marrow cells were centrifuged, and RBC lysed before being counted and resuspended at a concentration 5×10^5/mL in growth media. Ten mL of cell suspension was placed in 10 cm dishes and 20 ng/mL murine macrophage-colony-stimulating factor (mM-CSF) was added. Cells were incubated for two days, media replaced with fresh growth media containing 20 ng/mL mM-CSF, and then cultured for a further four days. BMDM and tumor cell lines SK-BR-3 (HER2pos) or MDA-MB-468 (HER2neg) were removed from plates with Accutase cell detachment solution and counted. […] Murine TNFα (mTNFα) levels in the supernatant were determined by mTNFα ELISA Kit (BioLegend) and read on an Envision Plate Reader (Perkin Elmer, Waltham, Mass.) according to manufactures instructions. mTNFα levels were then graphed using GraphPad Prism 7.01 software (GraphPad Software, San Diego, Calif.) and EC50 values generated using non-linear regression curve fit.
In the case of `CCOCc1nc2c(N)nc3ccccc3c2n1CC(C)(C)OCCNC(=O)C(C)(C)N` [Compound 1.2, 2-amino-N-(2-((1-(4-amino-2-(ethoxymethyl)-1H-imidazo[4,5-c]quinolin-1-yl)-2-methylpropan-2-yl)oxy)ethyl)-2-methylpropanamide], the “activation of mouse bone marrow cells (mTNFα)” value is “potently activating”.

The subject of another assay is BMDM with MDA-MB-468 (HER2neg). In words: mTNFα from mouse bone marrow derived macrophages co-cultured with MDA-MB-468 (HER2neg) cells. It counts as cell-based. Conditions: 24 hours co-culture with HER2neg MDA-MB-468. As for the experimental part:
as §1
As for `CCOCc1nc2c(N)nc3ccccc3c2n1CC(C)(C)OCCNC(=O)C(C)(C)N` [Compound 1.2, 2-amino-N-(2-((1-(4-amino-2-(ethoxymethyl)-1H-imidazo[4,5-c]quinolin-1-yl)-2-methylpropan-2-yl)oxy)ethyl)-2-methylpropanamide], the “activation of mouse bone marrow cells (mTNFα)” value is given as “potently activating”.

For another assay, the target named is T1, TLR7 (Mus musculus, UniProt P58681).
T1 construct: endogenous in cells; host or cells: Balb/c mouse bone marrow-derived macrophages, differentiated with M-CSF
T1 sequence (P58681 27-1050): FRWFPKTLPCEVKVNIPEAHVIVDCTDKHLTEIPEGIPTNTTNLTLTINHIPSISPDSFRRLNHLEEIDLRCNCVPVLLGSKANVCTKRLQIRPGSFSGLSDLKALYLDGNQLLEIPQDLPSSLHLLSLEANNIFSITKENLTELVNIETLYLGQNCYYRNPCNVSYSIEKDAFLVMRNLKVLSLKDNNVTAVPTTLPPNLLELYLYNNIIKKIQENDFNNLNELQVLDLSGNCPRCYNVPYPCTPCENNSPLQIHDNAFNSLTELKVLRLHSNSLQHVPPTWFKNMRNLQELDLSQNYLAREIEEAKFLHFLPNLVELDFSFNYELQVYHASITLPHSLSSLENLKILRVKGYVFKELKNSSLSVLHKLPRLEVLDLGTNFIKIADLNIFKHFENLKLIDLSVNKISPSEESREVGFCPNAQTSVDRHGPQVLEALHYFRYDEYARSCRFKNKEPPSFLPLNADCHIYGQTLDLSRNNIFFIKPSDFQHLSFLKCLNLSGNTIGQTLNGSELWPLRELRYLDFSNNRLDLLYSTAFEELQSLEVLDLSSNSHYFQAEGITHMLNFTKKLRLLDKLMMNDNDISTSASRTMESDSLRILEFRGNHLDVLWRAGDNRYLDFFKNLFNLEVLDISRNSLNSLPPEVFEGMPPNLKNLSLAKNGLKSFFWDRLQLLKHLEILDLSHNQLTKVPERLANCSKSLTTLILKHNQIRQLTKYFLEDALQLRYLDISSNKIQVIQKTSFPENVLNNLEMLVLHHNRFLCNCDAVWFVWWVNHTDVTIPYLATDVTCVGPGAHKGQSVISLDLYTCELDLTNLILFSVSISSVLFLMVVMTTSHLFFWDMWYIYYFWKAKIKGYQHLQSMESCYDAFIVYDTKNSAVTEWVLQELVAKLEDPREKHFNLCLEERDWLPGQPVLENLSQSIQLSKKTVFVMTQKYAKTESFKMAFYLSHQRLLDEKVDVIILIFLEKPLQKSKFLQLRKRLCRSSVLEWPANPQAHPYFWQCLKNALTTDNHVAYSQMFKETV
As to the kind of experiment: In vitro TLR7 small molecule screening: murine TNFα production by bone marrow-derived murine macrophages. The format is cell-based. Conditions: murine TNFα by ELISA after overnight culture; 1000 to 0.06 nM; non-linear regression. On the procedure:
Murine macrophages were derived from bone marrow cells from a Balb/c mouse. Briefly, murine bone marrow cells were isolated and resuspended in cDMEM media (high glucose DMEM (HyClone) supplemented with 10% fetal bovine serum (HyClone), 1 mM Sodium Pyruvate (HyClone), 2 mM L-glutamine (Gibco), 10 mM HEPES (HyClone), 1×NEAA (Gibco), 50 U/mL penicillin, 50 U/mL streptomycin (HyClone)) and seeded at 5e5 cells/mL in the presence of 20 ng/mL murine M-CSF (Peprotech) and incubated at 37° C., 5% CO2 for 7 days to differentiate into murine macrophages.
After differentiation, bone marrow-derived murine macrophages were plated in 96-well flat bottom microtiter plates (80,000/well) along with titrating concentrations of TLR7 small molecules ranging from 1000 to 0.06 nM in cRPMI media (RPMI-1640 (HyClone) supplemented with 10% fetal bovine serum (HyClone), 1 mM Sodium Pyruvate (HyClone), 2 mM L-glutamine (Gibco), 10 mM HEPES (HyClone), 1×NEAA (Gibco), 50 U/mL penicillin, 50 U/mL streptomycin (HyClone)). After overnight culture, supernatants were harvested and murine TNFα levels were determined by ELISA (BioLegend). Table 4. […] Data was analyzed using GraphPad Prism 7.01 software (GraphPad Software) and EC50 values calculated using non-linear regression. The TLR7 small molecules were active, stimulating production of murine TNFα in a dose-dependent manner from the murine macrophages. Compound A is represented by the formula: […]
As to `CCOCc1nc2c(N)nc3ccccc3c2n1CC(C)(C)OCCNC(=O)C(C)(C)NC(=O)OCc1ccccc1` [Compound 1.1, benzyl (1-((2-((1-(4-amino-2-(ethoxymethyl)-1H-imidazo[4,5-c]quinolin-1-yl)-2-methylpropan-2-yl)oxy)ethyl)amino)-2-methyl-1-oxopropan-2-yl)carbamate], the EC50 (as a rule, the concentration that produces a half-maximal response) amounted to 20 nM.

`CCOCc1nc2c(NC(=O)[C@H](C)NC(=O)OC(C)(C)C)nc3ccccc3c2n1CC(C)(C)OCCNC(=O)C(C)(C)NC(=O)OCc1ccccc1` [Compound 1.3, benzyl (S)-(1-((2-((1-(4-(2-((tert-butoxycarbonyl)amino)propanamido)-2-(ethoxymethyl)-1H-imidazo[4,5-c]quinolin-1-yl)-2-methylpropan-2-yl)oxy)ethyl)amino)-2-methyl-1-oxopropan-2-yl)carbamate] showed an EC50 of 1680 nM.

Regarding `CCOCc1nc2c(N)nc3ccccc3c2n1CC(C)(C)OCCNC(=O)OC(C)(C)C` [Compound 1.4, tert-butyl (2-((1-(4-amino-2-(ethoxymethyl)-1H-imidazo[4,5-c]quinolin-1-yl)-2-methylpropan-2-yl)oxy)ethyl)carbamate], the EC50 was determined as 1.2 nM.

`CCOCc1nc2c(NC(=O)[C@H](CCCNC(N)=O)NC(=O)[C@@H](N)C(C)C)nc3ccccc3c2n1CC(C)(C)OCCNC(=O)OC(C)(C)C` [Compound 1.5, tert-butyl (2-((1-(4-((S)-2-((S)-2-amino-3-methylbutanamido)-5-ureidopentanamido)-2-(ethoxymethyl)-1H-imidazo[4,5-c]quinolin-1-yl)-2-methylpropan-2-yl)oxy)ethyl)carbamate] yielded an EC50 of 4 nM.

For the compound `CCOCc1nc2c(NC(=O)[C@H](C)N)nc3ccccc3c2n1CC(C)(C)OCCNC(=O)C(C)(C)NC(=O)OCc1ccccc1` [Compound 1.6, benzyl (S)-(1-((2-((1-(4-(2-aminopropanamido)-2-(ethoxymethyl)-1H-imidazo[4,5-c]quinolin-1-yl)-2-methylpropan-2-yl)oxy)ethyl)amino)-2-methyl-1-oxopropan-2-yl)carbamate], the EC50 amounted to 657 nM.

In the case of `CCOCc1nc2c(NC(=O)[C@H](C)NC(=O)C3CCCN3C(=O)OC(C)(C)C)nc3ccccc3c2n1CC(C)(C)OCCNC(=O)C(C)(C)NC(=O)OCc1ccccc1` (stereo partly drawn) [Compound 1.7, tert-butyl 2-(((S)-1-((2-(ethoxymethyl)-1-(5,5,11,11-tetramethyl-3,6-dioxo-1-phenyl-2,10-dioxa-4,7-diazadodecan-12-yl)-1H-imidazo[4,5-c]quinolin-4-yl)amino)-1-oxopropan-2-yl)carbamoyl)pyrrolidine-1-carboxylate], the EC50 stood at 503 nM.

`CCOCc1nc2c(NC(=O)[C@H](CCCNC(N)=O)NC(=O)[C@@H](NC(=O)OCC3c4ccccc4-c4ccccc43)C(C)C)nc3ccccc3c2n1CC(C)(C)OCCNC(=O)OC(C)(C)C` [Compound 1.8, (9H-fluoren-9-yl)methyl ((S)-1-(((S)-1-((1-(2-(2-((tert-butoxycarbonyl)amino)ethoxy)-2-methylpropyl)-2-(ethoxymethyl)-1H-imidazo[4,5-c]quinolin-4-yl)amino)-1-oxo-5-ureidopentan-2-yl)amino)-3-methyl-1-oxobutan-2-yl)carbamate] registered an EC50 of 59 nM.

`CCOCc1nc2c(N)nc3ccccc3c2n1CC(C)(C)OCCN` [Compound A, reference compound] displayed an EC50 of 73 nM.
